Test results published in patent publication US7880010B2, “Crystalline forms of a dimethylphenyl compound” (Theravance, Inc., priority 2006, dated 2011).

Molecular target: T1, hM2 receptor (Homo sapiens, UniProt P08172)
T1 construct: expressed in transfected cells; host or cells: CHO / CHO-K1
T1 sequence (P08172 1-466): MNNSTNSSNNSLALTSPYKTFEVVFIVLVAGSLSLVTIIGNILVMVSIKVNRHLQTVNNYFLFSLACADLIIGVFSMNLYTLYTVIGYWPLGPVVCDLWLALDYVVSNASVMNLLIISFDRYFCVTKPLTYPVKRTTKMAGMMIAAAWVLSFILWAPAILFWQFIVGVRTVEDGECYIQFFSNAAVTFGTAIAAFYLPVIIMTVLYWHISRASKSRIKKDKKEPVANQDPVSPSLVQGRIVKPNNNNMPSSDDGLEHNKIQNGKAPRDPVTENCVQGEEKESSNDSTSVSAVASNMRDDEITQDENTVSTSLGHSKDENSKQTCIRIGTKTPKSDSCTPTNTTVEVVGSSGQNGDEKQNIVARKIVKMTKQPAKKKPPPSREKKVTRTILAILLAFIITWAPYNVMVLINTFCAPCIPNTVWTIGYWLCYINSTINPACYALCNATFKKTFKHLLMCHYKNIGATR
Experiment: Blockade of agonist-mediated inhibition of cAMP accumulation (Assay A)
Assay type: cell-based
Settings: CHO-K1 cells expressing the hM2 receptor
Procedure: In this assay, the functional potency of a test compound as an antagonist for the hM2 receptor was determined by measuring the ability of the test compound to block oxotremorine-inhibition of forskolin-mediated cAMP accumulation in CHO-K1 cells expressing the hM2 receptor. cAMP assays were performed in a radioimmunoassay format using the Flashplate Adenylyl Cyclase Activation Assay System with ^125I-cAMP (NEN SMP004B, PerkinElmer Life Sciences Inc., Boston, Mass.), according to the manufacturer's instructions. Cells were rinsed once with dPBS and lifted with Trypsin-EDTA solution (0.05% trypsin/0.53 mM EDTA) as described in the Cell Culture and Membrane Preparation section above. The detached cells were washed twice by centrifugation at 650×g for five minutes in 50 mL dPBS. The cell pellet was then re-suspended in 10 mL dPBS, and the cells were counted with a Coulter Z1 Dual Particle Counter (Beckman Coulter, Fullerton, Calif.). […]
Reactions were incubated for 10 minutes at 37° C. and stopped by addition of 100 μL ice-cold detection buffer. Plates were sealed, incubated overnight at room temperature and counted the next morning on a PerkinElmer TopCount liquid scintillation counter (PerkinElmer Inc., Wellesley, Mass.). The amount of cAMP produced (pmol/well) was calculated based on the counts observed for the samples and cAMP standards, as described in the manufacturer's user manual. […]

Kobs for blockade of oxotremorine-inhibition of forskolin-mediated cAMP accumulation: less than 10 nM
Compound: Cc1cc(NC(=O)CCN2CCC(OC(=O)Nc3ccccc3-c3ccccc3)CC2)c(C)cc1CNC[C@H](O)c1ccc(O)c(NC=O)c1 [compound of formula I, biphenyl-2-ylcarbamic acid 1-[2-(4-{[(R)-2-(3-formylamino-4-hydroxyphenyl)-2-hydroxyethylamino]methyl}-2,5-dimethylphenylcarbamoyl)ethyl]-piperidin-4-yl ester]
